Experimental data reported in ChEMBL document CHEMBL5104164, “Design, synthesis, and biological evaluation of pyrrolopyrimidine derivatives as novel Bruton's tyrosine kinase (BTK) inhibitors” (Eur J Med Chem, 2022).

Legend:
[1] = test system: SU-DHL-6; experiment: Antiproliferative activity against human SU-DHL-6 cells incubated for 72 hrs by CellTiter-Glo assay; assay type: functional, cell-based; conditions: SU-DHL-6, 72 h
[2] = test system: Raji; experiment: Antiproliferative activity against human Raji cells incubated for 72 hrs by CellTiter-Glo assay; assay type: functional, cell-based
[3] = test system: TMD8; experiment: Antitumor activity against human TMD8 cells xenografted in female CB-17 SCID nude mouse assessed as tumor growth inhibition at 25 mg/kg, po administered twice daily for 21 days; assay type: functional; conditions: TMD8, 504 h, time 21 day, read-out: TGI
[4] = test system: Ramos; experiment: Antiproliferative activity against human Ramos cells incubated for 72 hrs by CellTiter-Glo assay; assay type: functional, cell-based
[5] = Toxicity in female CB-17 SCID nude mouse xenografted with human TMD8 cells assessed as effect on body weight at 25 mg/kg, po administered twice daily for 21 days; assay type: organism-based; conditions: in vivo, 504 h, time 21 day
[6] = test system: SUD4; experiment: Antiproliferative activity against human SU-DHL-4 cells incubated for 72 hrs by CellTiter-Glo assay; assay type: functional, cell-based; conditions: SU-DHL-4, 72 h
[7] = Antiproliferative activity against human MINO cells incubated for 72 hrs by CellTiter-Glo assay; assay type: functional, cell-based
[8] = test system: Rec1; experiment: Antiproliferative activity against human REC1 cells incubated for 72 hrs by CellTiter-Glo assay; assay type: functional, cell-based; conditions: Rec1, 72 h
[9] = test system: DOHH-2; experiment: Antiproliferative activity against human DOHH-2 cells incubated for 72 hrs by CellTiter-Glo assay; assay type: functional, cell-based; conditions: DOHH-2, 72 h
[10] = test system: OCI-Ly3; experiment: Antiproliferative activity against human OCILY3 cells incubated for 72 hrs by CellTiter-Glo assay; assay type: functional, cell-based; conditions: OCI-Ly3, 72 h
[11] = test system: Pfeiffer; experiment: Antiproliferative activity against human Pfeiffer cells incubated for 72 hrs by CellTiter-Glo assay; assay type: functional, cell-based
[12] = test system: TMD8; experiment: Antiproliferative activity against human TMD8 cells incubated for 72 hrs by CellTiter-Glo assay; conditions: TMD8, 72 h
[13] = molecular target: Tyrosine-protein kinase BTK (Homo sapiens, UniProt Q06187); experiment: Inhibition of BTK (unknown origin) measured by ADP-Glo assay
Chain of Tyrosine-protein kinase BTK (Q06187 whole entry): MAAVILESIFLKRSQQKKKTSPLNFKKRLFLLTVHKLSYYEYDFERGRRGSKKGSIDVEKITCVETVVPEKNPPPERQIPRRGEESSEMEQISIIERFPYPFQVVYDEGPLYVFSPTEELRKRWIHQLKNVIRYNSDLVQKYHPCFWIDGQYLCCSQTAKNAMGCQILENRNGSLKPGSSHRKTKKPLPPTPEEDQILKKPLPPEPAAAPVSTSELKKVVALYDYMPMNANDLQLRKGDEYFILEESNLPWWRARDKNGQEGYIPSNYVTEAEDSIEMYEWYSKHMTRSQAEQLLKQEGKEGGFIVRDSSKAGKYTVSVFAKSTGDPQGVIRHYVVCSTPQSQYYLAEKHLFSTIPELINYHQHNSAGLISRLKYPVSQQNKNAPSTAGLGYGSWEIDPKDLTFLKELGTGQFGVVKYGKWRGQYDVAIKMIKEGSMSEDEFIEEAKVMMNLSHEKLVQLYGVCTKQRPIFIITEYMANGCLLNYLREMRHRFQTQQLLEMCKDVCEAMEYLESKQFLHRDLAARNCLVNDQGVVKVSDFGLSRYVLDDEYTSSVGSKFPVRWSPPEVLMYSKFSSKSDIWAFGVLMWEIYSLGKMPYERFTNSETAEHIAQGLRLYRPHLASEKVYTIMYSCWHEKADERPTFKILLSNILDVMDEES

[14] = Half-life in male BALB/c mouse at 2 mg/kg, iv; assay type: ADME, organism-based; conditions: in vivo
[15] = Apparent volume of distribution in male BALB/c mouse at 2 mg/kg, iv; assay type: ADME, organism-based; conditions: in vivo, read-out: Vz
[16] = Half-life in male BALB/c mouse at 10 mg/kg, po; assay type: ADME, organism-based; conditions: in vivo
[17] = AUC (0 to t) in male BALB/c mouse at 2 mg/kg, iv; assay type: ADME, organism-based; design: dose 2 mg/kg, route iv; conditions: in vivo
[18] = Oral bioavailability in male BALB/c mouse; assay type: ADME, organism-based; conditions: in vivo
[19] = AUC (0 to t) in male BALB/c mouse at 10 mg/kg, po; assay type: ADME, organism-based; design: dose 10 mg/kg, route po; conditions: in vivo
[20] = AUC (0 to infinity) in male BALB/c mouse at 10 mg/kg, po; assay type: ADME, organism-based; design: time infinity, dose 10 mg/kg, route po; conditions: in vivo
[21] = Tmax in male BALB/c mouse at 2 mg/kg, iv; assay type: ADME, organism-based; conditions: in vivo
[22] = Cmax in male BALB/c mouse at 2 mg/kg, iv; assay type: ADME, organism-based; design: dose 2 mg/kg, route iv; conditions: in vivo
[23] = AUC (0 to infinity) in male BALB/c mouse at 2 mg/kg, iv; assay type: ADME, organism-based; design: time infinity, dose 2 mg/kg, route iv; conditions: in vivo
[24] = Cmax in male BALB/c mouse at 10 mg/kg, po; assay type: ADME, organism-based; design: dose 10 mg/kg, route po; conditions: in vivo
[25] = Tmax in male BALB/c mouse at 10 mg/kg, po; assay type: ADME, organism-based; conditions: in vivo
[26] = Clearance in male BALB/c mouse at 2 mg/kg, iv; assay type: ADME, organism-based; conditions: in vivo
[27] = species: Homo sapiens; experiment: Selectivity ratio for inhibition of BTK (unknown origin) over EGFR (unknown origin)

IC50 [13]	Structure (SMILES)	IC50 [12]	further results
	C=CC(=O)N1CCC[C@@H](n2nc(-c3ccc(Oc4ccccc4)cc3)c3c(N)ncnc32)C1 [IBRUTINIB]	2.7 nM	IC50 [1]: 1500 nM; IC50 [2]: > 10000 nM; inhibition in vivo at 25 mg/kg [3]: 103%; IC50 [4]: 2090 nM; Activity [5]: Non-Toxic; IC50 [6]: 804 nM; IC50 [7]: > 10000 nM; IC50 [8]: 0.8 nM; IC50 [9]: 506 nM; IC50 [10]: > 10000 nM; IC50 [11]: 1650 nM
1 nM	CC#CC(=O)N1CC=C(c2c[nH]c3ncnc(-c4ccc(CNC(=O)c5ccccc5)c(F)c4)c23)CC1	5.4 nM	
17.3 nM	C=CC(=O)N1CCC(CNc2ncnc3[nH]cc(C(=O)NCCc4ccccc4)c23)CC1		
4.5 nM	C=CC(=O)N1CCC(Nc2ncnc3[nH]cc(C(=O)N4CC(Oc5ccccc5)C4)c23)C1 (configuration not stated)	2530 nM	
0.8 nM	C=CC(=O)N1CCC(CNc2ncnc3[nH]cc(C(=O)N4CC(Oc5ccccn5)C4)c23)CC1	38.1 nM	
0.5 nM	C=CC(=O)N1CCC(CNc2ncnc3[nH]cc(C(=O)N4CC(Oc5cccc(Cl)c5)C4)c23)CC1	12.9 nM	half-life [14]: 11.4 min; Vd [15]: 1.52 L/kg; half-life [16]: 23.4 min; AUC(0-t) [17]: 359 ng·h/mL; bioavailability [18]: 1.82%; AUC(0-t) [19]: 32.8 ng·h/mL; AUC(0-inf) [20]: 32.9 ng·h/mL; Tmax [21]: 3 min; Cmax [22]: 1250 ng/mL; AUC(0-inf) [23]: 541 ng·h/mL; Cmax [24]: 48.6 ng/mL; Tmax [25]: 6.6 min; clearance [26]: 92.8 mL/min/kg
8.4 nM	C=CC(=O)N1CCC(CNc2ncnc3[nH]cc(C(=O)NCCOc4ccccc4)c23)CC1		
26.2 nM	C=CC(=O)N1CCC(CNc2ncnc3[nH]cc(C(=O)N4CCC(Oc5ccccc5)CC4)c23)CC1		
5410 nM	C=CC(=O)NC1CCCN(c2ncnc3[nH]cc(C(=O)N4CC(Oc5ccccc5)C4)c23)C1 (configuration not stated)		
	C=CC(=O)N1CCC(CNc2ncnc(N)c2-c2ccc(Oc3ccccc3)cc2)CC1 [EVOBRUTINIB]	56.2 nM	
1.9 nM	C=CC(=O)N1CCC(c2c[nH]c3ncnc(-c4ccc(CNC(=O)c5ccc(C(C)(C)C)cc5)c(F)c4)c23)CC1		
98.7 nM	C=CC(=O)N1CCC(CNc2ncnc3[nH]cc(C(=O)Nc4ccccc4)c23)CC1		
1.4 nM	CC#CC(=O)N1CCC(c2c[nH]c3ncnc(-c4ccc(CNC(=O)c5ccc(C(C)(C)C)cc5)c(C)c4)c23)CC1		
593 nM	C=CC(=O)N1CCC(Nc2ncnc3[nH]cc(C(=O)N4CC(Oc5ccccc5)C4)c23)CC1		
94.9 nM	C=CC(=O)N1CC[C@H](n2nc(C#Cc3cc(OC)cc(OC)c3)c3c(N)ncnc32)C1 [FUTIBATINIB]		
2.1 nM	C=CC(=O)N1CCC(c2c[nH]c3ncnc(-c4ccc(CNC(=O)c5ccc(C(C)(C)C)cc5)cc4)c23)CC1		
1.2 nM	CC#CC(=O)N1CCC(c2c[nH]c3ncnc(-c4ccc(CNC(=O)c5ccc(C(C)(C)C)cc5)c(F)c4)c23)CC1	1.8 nM	half-life [14]: 167 min; Vd [15]: 34.8 L/kg; half-life [16]: 83.4 min; AUC(0-t) [17]: 229 ng·h/mL; bioavailability [18]: 0.78%; AUC(0-t) [19]: 8.94 ng·h/mL; AUC(0-inf) [20]: 9.57 ng·h/mL; Tmax [21]: 1.8 min; Cmax [22]: 2160 ng/mL; AUC(0-inf) [23]: 231 ng·h/mL; Cmax [24]: 49.9 ng/mL; Tmax [25]: 4.8 min; clearance [26]: 144 mL/min/kg
1.1 nM	CC#CC(=O)N1CC=C(c2c[nH]c3ncnc(-c4ccc(CNC(=O)c5ccc(C(C)(C)C)cc5)c(C)c4)c23)CC1	1.7 nM	
	C=CC(=O)N1CCC([C@@H]2CCNc3c(C(N)=O)c(-c4ccc(Oc5ccccc5)cc4)nn32)CC1		Selectivity ratio [27]: 8.7
153 nM	CC#CC(=O)N1CCCC(Nc2ncnc3[nH]cc(C(=O)N4CC(Oc5ccccc5)C4)c23)C1 (configuration not stated)		
2.2 nM	C=CC(=O)N1CCC(O)(CNc2ncnc3[nH]cc(C(=O)N4CC(Oc5ccccc5)C4)c23)CC1	320 nM	
0.5 nM	C=CC(=O)N1CCC(CNc2ncnc3[nH]cc(C(=O)N4CC(Oc5cccc(C)c5)C4)c23)CC1	15.6 nM	
974 nM	CC#CC(=O)N1CCC(Nc2ncnc3[nH]cc(C(=O)N4CC(Oc5ccccc5)C4)c23)CC1		
1.4 nM	CC#CC(=O)N1CC=C(c2c[nH]c3ncnc(-c4ccc(CNC(=O)Nc5ccccc5)c(F)c4)c23)CC1	7.2 nM	
0.8 nM	CC#CC(=O)N1CC=C(c2c[nH]c3ncnc(-c4ccc(CNC(=O)c5ccc(C(C)(C)C)cc5)c(F)c4)c23)CC1	1.7 nM	

IC50 [13]	Structure (SMILES)	IC50 [12]	further results
1.3 nM	C=CC(=O)N1CC=C(c2c[nH]c3ncnc(-c4ccc(CNC(=O)c5ccc(C(C)(C)C)cc5)c(F)c4)c23)CC1	3.4 nM	
2.5 nM	C=CC(=O)N1CC=C(c2c[nH]c3ncnc(-c4ccc(CNC(=O)c5ccc(C(C)(C)C)cc5)cc4)c23)CC1		
0.7 nM	C=CC(=O)N1CCC(CNc2ncnc3[nH]cc(C(=O)N4CC(Oc5ccc(F)cc5)C4)c23)CC1	84.1 nM	
0.8 nM	C=CC(=O)N1CCC(c2c[nH]c3ncnc(-c4ccc(CNC(=O)c5ccc(C(C)(C)C)cc5)c(C)c4)c23)CC1	1.5 nM	
23.2 nM	C=CC(=O)N1CCC(CNc2ncnc3[nH]cc(C(=O)N4CC(OC(C)C)C4)c23)CC1		
1.34 nM	C=CC(=O)N1CC=C(c2c[nH]c3ncnc(-c4ccc(CNC(=O)c5ccc(C(C)(C)C)cc5)c(C)c4)c23)CC1		
52.3 nM	C=CC(=O)N1CCC(CNc2ncnc3[nH]cc(C(=O)NCc4ccccc4)c23)CC1		
0.4 nM	C=CC(=O)N1CCC(CNc2ncnc3[nH]cc(C(=O)N4CC(Oc5cccc(F)c5)C4)c23)CC1	9.2 nM	half-life [14]: 15.6 min; Vd [15]: 1.37 L/kg; half-life [16]: 57 min; AUC(0-t) [17]: 539 ng·h/mL; bioavailability [18]: 2.58%; AUC(0-t) [19]: 69.5 ng·h/mL; AUC(0-inf) [20]: 75.3 ng·h/mL; Tmax [21]: 1.8 min; Cmax [22]: 2230 ng/mL; AUC(0-inf) [23]: 541 ng·h/mL; Cmax [24]: 148 ng/mL; Tmax [25]: 15 min; clearance [26]: 61.8 mL/min/kg
11.1 nM	CC#CC(=O)N1CC=C(c2c[nH]c3ncnc(-c4ccc(CNC(=O)c5ccc(C(C)(C)C)cc5)cc4)c23)CC1		
16.4 nM	CC#CC(=O)N1CCC(CNc2ncnc3[nH]cc(C(=O)N4CC(Oc5ccccc5)C4)c23)CC1		
31.7 nM	CCOc1cc2ncc(C#N)c(Nc3ccc(OCc4ccccn4)c(Cl)c3)c2cc1NC(=O)/C=C/[C@H]1CCCN1C [PYROTINIB]		
92.9 nM	C=CC(=O)NCCNc1ncnc2[nH]cc(C(=O)N3CC(Oc4ccccc4)C3)c12		
0.6 nM	C=CC(=O)N1CCC(CNc2ncnc3[nH]cc(C(=O)N4CC(Oc5ccccc5)C4)c23)CC1	24.4 nM	
68.5 nM	CC#CC(=O)N1CCC(Nc2ncnc3[nH]cc(C(=O)N4CC(Oc5ccccc5)C4)c23)C1 (configuration not stated)		
1.4 nM	C=CC(=O)N1CCC(CNc2ncnc3[nH]cc(C(=O)N4CC(Oc5ccc6ccccc6c5)C4)c23)CC1	28 nM	
0.8 nM	C=CC(=O)N1CCC(CNc2ncnc3[nH]cc(C(=O)N4CC(Oc5cccc6ccccc56)C4)c23)CC1	22.6 nM	
1.9 nM	CC#CC(=O)N1CC=C(c2c[nH]c3ncnc(-c4ccc(CNC(=O)c5ccc(C6CC6)cc5)c(F)c4)c23)CC1	1.2 nM	
1.2 nM	C=CC(=O)N1CC=C(c2c[nH]c3ncnc(-c4ccc(CNC(=O)c5ccc(C6CC6)cc5)c(F)c4)c23)CC1	0.8 nM	
1.6 nM	C=CC(=O)N1CCC(CNc2ncnc3[nH]cc(C(=O)N4CC(Oc5cccc(C(F)(F)F)c5)C4)c23)CC1	22.4 nM	
> 10000 nM	CC#CC(=O)NC1CCCN(c2ncnc3[nH]cc(C(=O)N4CC(Oc5ccccc5)C4)c23)C1 (configuration not stated)		
1.9 nM	C=CC(=O)N1CCCC(Nc2ncnc3[nH]cc(C(=O)N4CC(Oc5ccccc5)C4)c23)C1 (configuration not stated)	454 nM	
2 nM	C=CC(=O)N1CCC(CNc2ncnc3[nH]cc(C(=O)N4CC(OCc5ccccc5)C4)c23)CC1	30.7 nM	
2.2 nM	CC#CC(=O)N1CCC(c2c[nH]c3ncnc(-c4ccc(CNC(=O)c5ccc(C(C)(C)C)cc5)cc4)c23)CC1		
0.8 nM	C=CC(=O)N1CC=C(c2c[nH]c3ncnc(-c4ccc(CNC(=O)Nc5ccccc5)c(F)c4)c23)CC1	12.1 nM	
